Values quoted from earlier work as cited in patent publication US9255080B2, “Quinazolinedione derivatives as PARP inhibitors” (Janssen Pharmaceutica NV, priority 2004, dated 2016).

Key:
[1] = test system: ischemia and reperfusion of the heart; conditions: rabbits, cited from earlier work
[2] = test system: colitis induced by trinitrobenzene sulfonic acid; conditions: rats, colitis by intraluminal trinitrobenzene sulfonic acid in 50% ethanol; cited from earlier work

Compound: Oc1cccc2c(O)nccc12 [1,5-dihydroxyisoquinoline]
- reduction in infarct size ([1]; single injection 1 mg/kg): 38-48%

Compound: NC(=O)c1cccc(N)c1 [3-amino-benzamide]
- reduction in infarct size in the heart ([1]; single injection 10 mg/kg, one minute before occlusion or one minute before reperfusion): 32-42%
- effect on inflammatory response and distal colon [2]: reduced the inflammatory response and restored the morphology and the energetic status of the distal colon
